{"source": "patent US12011499B2", "about": "“Peptides and compositions for use in cosmetics” (LIPOTRUE, S.L., priority 2020, dated 2024)", "key": {"HDFa": {"test_system": "HDFa", "assay": "Cytotoxicity of tested concentrations on HDFa", "type": "cell-based, human", "conditions": "0.01, 0.05, 0.1 and 0.5 mg/ml"}, "versican [1]": {"test_system": "versican", "assay": "Modulation of versican synthesis in HDFa cell culture (sandwich ELISA)", "type": "cell-based, human", "conditions": "24 hours", "procedure": "The effect of Ac-SEQ ID NO: 3-NH2 peptide (synthesized in accordance with examples 1-3 and 5) on versican production was evaluated in vitro using human dermal fibroblasts (hereinafter, HDFa).\nBriefly, HDFa cells were seeded in 96-well plates at 1×10^4 cells/well in fibroblasts growth media and maintained for 24 hours at standard culture conditions (37° C., 95% humidity, 5% CO2). After the aforementioned incubation, medium was removed and new medium containing the non-cytotoxic concentrations of Ac-SEQ ID NO: 3-NH2 peptide of: 0.01 mg/ml, 0.05 mg/ml and 0.1 mg/ml was added and incubated for 24 hours. 0.1 μM retinoic acid was included as positive control for versican stimulation and untreated cells were included as basal control. Cell culture media and cell lysate were collected from all wells at the end of the experiment and stored at −80° C. Ex-novo synthesis of versican was measured by means of sandwich ELISA following manufacturer's instructions."}, "versican [2]": {"test_system": "versican", "assay": "Modulation of versican synthesis on human skin explants (immunostaining)", "conditions": "0.005 mg/ml in cosmetic formulation, topical on days 0, 2, 4 and 7, explants collected day 9", "procedure": "The effect of Ac-SEQ ID NO: 3-NH2 peptide (synthesized in accordance with examples 1-3 and 5) on versican production was evaluated on human skin explants from a donor.\nBriefly, skin explants were obtained from a volunteer donor undergoing a plastic surgery procedure. Skin excess was donated for the present study. Skin explants were treated with a cosmetic formulation containing 1% (m/v) from a stock at 0.05% (m/v) of Ac-SEQ ID NO: 3-NH2 (effective final concentration of Ac-SEQ ID NO: 3-NH2, 0.005 mg/ml). On days 0, 2, 4 and 7, the tested product was topically applied on the basis of 2 μl per cm^2 of skin explant and spread using a small spatula.\nOn day 9, 3 explants from each condition were collected and fixed in a buffered formalin solution. After fixation for 24 hours in buffered formalin, samples were dehydrated and impregnated and embedded in paraffin. 5-μm-thick sections were made using a Leica RM 2125 Minot-type microtome, and the sections were mounted on Superfrost® histological glass slides. The microscopical observations were performed using a Leica DMLB or Olympus BX43 microscope. Pictures were digitized with a numeric DP72 Olympus camera with CellD storing software.\nThe immunostaining was performed using an automated slide-processing system (Dako, AutostainerPlus). The staining was assessed by microscopical observation and image analysis."}, "tropoelastin": {"test_system": "tropoelastin", "assay": "Modulation of tropoelastin synthesis in HDFa cell culture (sandwich ELISA)", "type": "cell-based, human", "conditions": "24 hours", "procedure": "The potential effect of Ac-SEQ ID NO: 3-NH2 peptide (synthesized in accordance with examples 1-3 and 5) on tropoelastin synthesis was evaluated in vitro using HDFa.\nHDFa were put in culture at a density of 1×10^4 cells/well in 96-well plates and incubated for 24 hours with non-cytotoxic increasing concentrations of Ac-SEQ ID NO: 3-NH2 peptide (0.01 mg/ml, 0.05 mg/ml, 0.1 mg/ml and 0.5 mg/ml). Untreated cells were included as basal control. At the end of the monitored experimental time cell culture media and cell lysates were extracted from all wells and stored at −80° C. Ex-novo synthesis of tropoelastin was measured by means of sandwich ELISA following manufacturer's instructions."}, "[3]": {"test_system": "Metalloproteinase-1 (MMP1)", "assay": "Gene expression modulation in HDFa (RTqPCR), MMP1", "type": "cell-based, human", "conditions": "0.1 mg/ml, 6 hours", "procedure": "(§1) Changes in gene expression levels are represented as a positive or negative fold-change with regard to the basal control (untreated cells). Bars from top to bottom in the y axis refer to: Metalloproteinase-1 (MMP1), Metalloproteinase-3 (MMP3), Fibronectin 1 (FN1), Fibrillin-1 (FBN1) and Versican (VCAN) genes, and x axis refers to fold change vs basal control.\n(§2) Modulation of gene expression by Ac-SEQ ID NO: 3-NH2 peptide (synthesized in accordance with examples 1-3 and 5) on HDFa was evaluated in vitro.\n(§3) Briefly, HDFa cells were seeded in duplicate in 6-well plates at a density of 4×10^5 cells/well and they were maintained at standard culture conditions (37° C., 95% humidity, 5% CO2) for 24 hours. Then, cells were treated with Ac-SEQ ID NO: 3-NH2 peptide at the non-cytotoxic concentration of 0.05 and 0.1 mg/ml for additional 6 hours. Untreated cells were used as basal control. […] RNA was then quantified by nanodrop, adjusted in concentration and processed for retrotranscription to cDNA using a commercially available kit (High-Capacity cDNA Reverse Transcription kit—Thermofisher Scientific, USA). Resulting cDNA was used to perform a RTqPCR (Real Time Quantitative Polymerase Chain Reaction) using taqman technology and a panel of probes designed to target specific genes related to extracellular matrix components and structure."}, "Fibrillin-1 (FBN1)": {"test_system": "Fibrillin-1 (FBN1)", "assay": "Gene expression modulation in HDFa (RTqPCR), FBN1", "type": "cell-based, human", "conditions": "0.05 mg/ml, 6 hours", "procedure": "as §1, §2, §3"}, "facial skin firmness": {"test_system": "facial skin firmness", "assay": "Clinical evaluation of facial skin firmness on female volunteers (Dynaskin)", "type": "in vivo, human", "conditions": "0.015 mg/ml in cosmetic formulation, two times per day, after 56 days, whole treated group", "procedure": "The effect of Ac-SEQ ID NO: 3-NH2 peptide (synthesized in accordance with examples 1-3 and 5) on facial skin firmness was evaluated on 22 Caucasian female volunteers.\nBriefly, volunteers applied a cosmetic formulation with 3% (m/v) from a stock at 0.05% (m/v) of Ac-SEQ ID NO: 3-NH2 (effective final concentration of Ac-SEQ ID NO: 3-NH2, 0.015 mg/ml) or without (placebo). The application regime was of two times per day during 56 days, on early morning and before bedtime. Cosmetic formulations were applied on either half of clean face in order to compare the effect of placebo and the active on the same volunteer.\nOn days 0, 7, 14 and 56, a Dynaskin device was used on each volunteer in order to measure the firmness quality of the skin according to three parameters: volume (mm^3), area (mm^2) and depth (mm). Dynaskin uses an air beam projection onto the cheek area causing a deformation of the skin. This deformation magnitude is measured by means of a specific software collecting data of the above three parameters for each volunteer and on each hemiface."}, "[4]": {"test_system": "Metalloproteinase-3 (MMP3)", "assay": "Gene expression modulation in HDFa (RTqPCR), MMP3", "type": "cell-based, human", "conditions": "0.1 mg/ml, 6 hours", "procedure": "as §1, §2, §3"}, "hyaluronic acid": {"test_system": "hyaluronic acid", "assay": "Modulation of hyaluronic acid synthesis in HDFa cell culture (competitive ELISA)", "type": "cell-based, human", "conditions": "48 hours", "procedure": "Modulation of Hyaluronic acid production by Ac-SEQ ID NO: 3-NH2 peptide (synthesized in accordance with examples 1-3 and 5) on HDFa was evaluated in vitro.\nBriefly, HDFa were seeded in 96-well plates at a density of 1×10^4 cells/well and, then, incubated with non-cytotoxic concentrations of Ac-SEQ ID NO: 3-NH2 peptide, this is 0.01 mg/ml, 0.05 mg/ml, 0.1 mg/ml and 0.5 mg/ml, for 48 hours. 0.1 μM retinoic acid was included as positive control and untreated cells were included as basal control. At the end of the experiment, cell culture media were extracted from all wells and stored at −80° C. Ex-novo synthesis of hyaluronic acid was measured by means of competitive ELISA following manufacturer's instructions."}, "fibrillin-1 [5]": {"test_system": "fibrillin-1", "assay": "Modulation of fibrillin-1 synthesis in HDFa cell culture (sandwich ELISA)", "type": "cell-based, human", "conditions": "48 hours", "procedure": "Modulation of fibrilin-1 synthesis by Ac-SEQ ID NO: 3-NH2 peptide (synthesized in accordance with examples 1-3 and 5) was evaluated in vitro using HDFa.\nHDFa were seeded in 96-well plates at a density of 1×10^4 cells/well and they were put in contact with three non-cytotoxic concentrations of Ac-SEQ ID NO: 3-N H2 peptide: 0.01 mg/ml, 0.05 mg/ml and 0.1 mg/ml for 48 hours. Untreated cells were included as basal control. At the end of the monitored experiment, cell culture media were extracted from all wells and stored at −80° C. Modulation on fibrillin-1 levels was analyzed by means of sandwhich ELISA following manufacturer's instructions."}, "Versican (VCAN)": {"test_system": "Versican (VCAN)", "assay": "Gene expression modulation in HDFa (RTqPCR), VCAN", "type": "cell-based, human", "conditions": "0.05 mg/ml, 6 hours", "procedure": "as §1, §2, §3"}, "Fibronectin 1 (FN1)": {"test_system": "Fibronectin 1 (FN1)", "assay": "Gene expression modulation in HDFa (RTqPCR), FN1", "type": "cell-based, human", "conditions": "0.1 mg/ml, 6 hours", "procedure": "as §1, §2, §3"}, "fibrillin-1 [6]": {"test_system": "fibrillin-1", "assay": "Modulation of fibrillin-1 synthesis on human skin explants (immunostaining)", "conditions": "0.005 mg/ml in cosmetic formulation, topical on days 0, 2, 4 and 7, explants collected day 9", "procedure": "The effect of Ac-SEQ ID NO: 3-NH2 peptide (synthesized in accordance with examples 1-3 and 5) on fibrillin-1 production was evaluated on human skin explants from a donor.\nBriefly, skin explants were treated with a cosmetic formulation containing 1% (m/v) from a stock at 0.05% (m/v) of Ac-SEQ ID NO: 3-N H2 (effective final concentration of Ac-SEQ ID NO: 3-N H2, 0.005 mg/ml). On days 0, 2, 4 and 7, the tested product was topically applied on the basis of 2 μl per cm^2 of skin explant and spread using a small spatula.\nOn day 9, 3 explants from each condition were collected and frozen at −80° C. The frozen samples were cut into 7-μm-thick sections using a Leica CM 3050 cryostat. Sections were then mounted on Superfrost® plus silanized glass slides. The microscopical observations were performed using a Leica DMLB or Olympus BX43 microscope. Pictures were digitized with a numeric DP72 Olympus camera with CellD storing software.\nThe nuclei were counterstained using propidium iodide. The immunostaining was performed using an automated slide-processing system (Dako, AutostainerPlus). The staining was assessed by microscopical observation and image analysis."}}}
{"substance": "Ac-ALHKVK-NH2 [Ac-SEQ ID NO: 3-NH2, Ac-Ala-Leu-His-Lys-Val-Lys-NH2]", "values": [{"measurement": "cytotoxicity on HDFa", "setting": "HDFa", "value": "non-cytotoxic"}, {"measurement": "increase in versican synthesis compared to basal control", "setting": "versican [1]; 0.01 mg/ml", "value": 24, "unit": "%"}, {"measurement": "increase in versican synthesis compared to basal control", "setting": "versican [1]; 0.05 mg/ml", "value": 35, "unit": "%"}, {"measurement": "increase in versican synthesis compared to basal control", "setting": "versican [1]; 0.10 mg/ml", "value": 62, "unit": "%"}, {"measurement": "increase in skin surface occupied by versican protein compared to basal control", "setting": "versican [2]", "value": 29, "unit": "%"}, {"measurement": "increase in tropoelastin synthesis compared to basal control", "setting": "tropoelastin; 0.01 mg/ml", "value": 3, "unit": "%"}, {"measurement": "increase in tropoelastin synthesis compared to basal control", "setting": "tropoelastin; 0.05 mg/ml", "value": 11, "unit": "%"}, {"measurement": "increase in tropoelastin synthesis compared to basal control", "setting": "tropoelastin; 0.10 mg/ml", "value": 20, "unit": "%"}, {"measurement": "increase in tropoelastin synthesis compared to basal control", "setting": "tropoelastin; 0.50 mg/ml", "value": 31, "unit": "%"}, {"measurement": "MMP1 gene expression, fold change vs basal control", "setting": "[3]", "value": "−1.33"}, {"measurement": "Fibrillin 1 gene expression, fold change vs basal control", "setting": "Fibrillin-1 (FBN1)", "value": 1.55}, {"measurement": "decrease in area of cheek deformation versus initial time", "setting": "facial skin firmness", "value": 7, "unit": "%"}, {"measurement": "decrease in depth of cheek deformation versus initial time", "setting": "facial skin firmness", "value": 14.5, "unit": "%"}, {"measurement": "decrease in volume of cheek deformation versus initial time", "setting": "facial skin firmness", "value": 20, "unit": "%"}, {"measurement": "MMP3 gene expression, fold change vs basal control", "setting": "[4]", "value": "−1.20"}, {"measurement": "increase in hyaluronic acid production compared to basal control", "setting": "hyaluronic acid; 0.01 mg/ml", "value": 3, "unit": "%"}, {"measurement": "increase in hyaluronic acid production compared to basal control", "setting": "hyaluronic acid; 0.05 mg/ml", "value": 8, "unit": "%"}, {"measurement": "increase in hyaluronic acid production compared to basal control", "setting": "hyaluronic acid; 0.1 mg/ml", "value": 10, "unit": "%"}, {"measurement": "increase in hyaluronic acid production compared to basal control", "setting": "hyaluronic acid; 0.5 mg/ml", "value": 18, "unit": "%"}, {"measurement": "increase in fibrillin-1 synthesis compared to basal control", "setting": "fibrillin-1 [5]; 0.01 mg/ml", "value": 18, "unit": "%"}, {"measurement": "increase in fibrillin-1 synthesis compared to basal control", "setting": "fibrillin-1 [5]; 0.05 mg/ml", "value": 30, "unit": "%"}, {"measurement": "increase in fibrillin-1 synthesis compared to basal control", "setting": "fibrillin-1 [5]; 0.10 mg/ml", "value": 41, "unit": "%"}, {"measurement": "Versican gene expression, fold change vs basal control", "setting": "Versican (VCAN)", "value": 1.22}, {"measurement": "Fibronectin 1 gene expression, fold change vs basal control", "setting": "Fibronectin 1 (FN1)", "value": 1.41}, {"measurement": "increase in skin surface occupied by fibrillin-1 protein compared to basal control", "setting": "fibrillin-1 [6]", "value": 24, "unit": "%"}]}
